Measurements reported in ChEMBL document CHEMBL6096629, “Indolo[3,2-c]isoquinoline Hydroxamic Acid Derivatives as Novel Orally Topoisomerase-Histone Deacetylase Dual Inhibitors for NSCLC Therapy” (J Med Chem, 2025).

How the values were obtained:
MCF7 [1] = assay: cells; type: functional, cell-based; conditions: Homo sapiens, MCF7, 24 h
Description: Antiproliferative activity against human MCF7 cells incubated for 24 hrs by MTT assay

Histone deacetylase 1 = Histone deacetylase 1 (Homo sapiens, UniProt Q13547); assay: Inhibition of HDAC1 (unknown origin)
HCT-116 [2] = assay: cells; type: functional, cell-based; conditions: Homo sapiens, HCT-116, 24 h
Description: Antiproliferative activity against human HCT-116 cells incubated for 24 hrs by MTT assay

PC-3 [3] = assay: Antiproliferative activity against human PC-3 cells incubated for 24 hrs by MTT assay; type: functional, cell-based; conditions: PC-3, 24 h
NCI-H2228 [4] = assay: Antiproliferative activity against human NCI-H2228 cells incubated for 24 hrs by MTT assay; type: functional, cell-based; conditions: NCI-H2228, 24 h
MDA-MB-231 [5] = assay: cells; type: functional, cell-based; conditions: Homo sapiens, MDA-MB-231, 24 h
Huh-7 [6] = assay: Antiproliferative activity against human Huh-7 cells incubated for 24 hrs by MTT assay; type: functional, cell-based; conditions: Huh-7, 24 h
Histone deacetylase 8 = molecular target: T1, Histone deacetylase 8 (Homo sapiens, UniProt Q9BY41)
T1 sequence (Q9BY41 whole entry): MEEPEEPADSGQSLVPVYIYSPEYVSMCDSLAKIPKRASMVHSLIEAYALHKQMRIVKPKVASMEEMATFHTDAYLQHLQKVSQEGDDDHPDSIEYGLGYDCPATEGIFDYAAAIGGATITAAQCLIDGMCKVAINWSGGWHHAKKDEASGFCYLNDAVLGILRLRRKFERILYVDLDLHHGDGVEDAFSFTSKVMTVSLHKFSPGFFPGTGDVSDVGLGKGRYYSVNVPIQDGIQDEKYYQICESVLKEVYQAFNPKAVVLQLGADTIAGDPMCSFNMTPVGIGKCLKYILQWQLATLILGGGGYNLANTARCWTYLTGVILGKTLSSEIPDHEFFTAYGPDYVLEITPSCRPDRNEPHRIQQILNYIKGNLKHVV
Description: Inhibition of HDAC8 (unknown origin)

Histone deacetylase 7 = molecular target: T2, Histone deacetylase 7 (Homo sapiens, UniProt Q8WUI4)
T2 sequence (Q8WUI4 whole entry): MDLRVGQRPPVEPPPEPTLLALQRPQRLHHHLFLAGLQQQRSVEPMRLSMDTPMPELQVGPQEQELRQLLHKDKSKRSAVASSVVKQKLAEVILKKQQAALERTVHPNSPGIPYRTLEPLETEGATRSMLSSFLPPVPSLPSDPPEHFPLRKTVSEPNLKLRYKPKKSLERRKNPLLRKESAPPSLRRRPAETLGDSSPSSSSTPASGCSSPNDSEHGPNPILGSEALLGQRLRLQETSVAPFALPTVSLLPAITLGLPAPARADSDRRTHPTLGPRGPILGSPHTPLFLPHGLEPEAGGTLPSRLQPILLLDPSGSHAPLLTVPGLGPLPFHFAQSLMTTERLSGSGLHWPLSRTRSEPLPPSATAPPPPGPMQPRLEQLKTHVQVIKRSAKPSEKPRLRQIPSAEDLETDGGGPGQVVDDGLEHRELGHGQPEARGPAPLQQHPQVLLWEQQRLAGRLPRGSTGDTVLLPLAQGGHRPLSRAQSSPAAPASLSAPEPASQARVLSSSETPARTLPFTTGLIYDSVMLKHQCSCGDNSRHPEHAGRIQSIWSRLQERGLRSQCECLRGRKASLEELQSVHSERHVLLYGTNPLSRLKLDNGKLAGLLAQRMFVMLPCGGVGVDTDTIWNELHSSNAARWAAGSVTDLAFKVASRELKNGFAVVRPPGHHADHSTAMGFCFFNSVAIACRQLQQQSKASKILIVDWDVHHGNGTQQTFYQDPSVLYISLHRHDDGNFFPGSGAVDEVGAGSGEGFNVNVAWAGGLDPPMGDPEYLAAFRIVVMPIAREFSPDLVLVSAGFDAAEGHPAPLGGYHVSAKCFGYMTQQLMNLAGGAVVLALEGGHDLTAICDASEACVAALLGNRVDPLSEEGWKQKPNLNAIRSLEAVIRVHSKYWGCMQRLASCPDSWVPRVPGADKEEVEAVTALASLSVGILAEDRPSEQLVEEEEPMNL
Description: Inhibition of HDAC7 (unknown origin)

Histone deacetylase 2 = Histone deacetylase 2 (Homo sapiens, UniProt Q92769); assay: Inhibition of HDAC2 (unknown origin)
Histone deacetylase 9 = Histone deacetylase 9 (Homo sapiens, UniProt Q9UKV0)
Description: Inhibition of HDAC9 (unknown origin)

Histone deacetylase 4 = Histone deacetylase 4 (Homo sapiens, UniProt P56524)
Description: Inhibition of HDAC4 (unknown origin)

Histone deacetylase 5 = Histone deacetylase 5 (Homo sapiens, UniProt Q9UQL6)
Description: Inhibition of HDAC5 (unknown origin)

[7] = molecular target: T3, Polyamine deacetylase HDAC10 (Homo sapiens, UniProt Q969S8)
T3 sequence (Q969S8 whole entry): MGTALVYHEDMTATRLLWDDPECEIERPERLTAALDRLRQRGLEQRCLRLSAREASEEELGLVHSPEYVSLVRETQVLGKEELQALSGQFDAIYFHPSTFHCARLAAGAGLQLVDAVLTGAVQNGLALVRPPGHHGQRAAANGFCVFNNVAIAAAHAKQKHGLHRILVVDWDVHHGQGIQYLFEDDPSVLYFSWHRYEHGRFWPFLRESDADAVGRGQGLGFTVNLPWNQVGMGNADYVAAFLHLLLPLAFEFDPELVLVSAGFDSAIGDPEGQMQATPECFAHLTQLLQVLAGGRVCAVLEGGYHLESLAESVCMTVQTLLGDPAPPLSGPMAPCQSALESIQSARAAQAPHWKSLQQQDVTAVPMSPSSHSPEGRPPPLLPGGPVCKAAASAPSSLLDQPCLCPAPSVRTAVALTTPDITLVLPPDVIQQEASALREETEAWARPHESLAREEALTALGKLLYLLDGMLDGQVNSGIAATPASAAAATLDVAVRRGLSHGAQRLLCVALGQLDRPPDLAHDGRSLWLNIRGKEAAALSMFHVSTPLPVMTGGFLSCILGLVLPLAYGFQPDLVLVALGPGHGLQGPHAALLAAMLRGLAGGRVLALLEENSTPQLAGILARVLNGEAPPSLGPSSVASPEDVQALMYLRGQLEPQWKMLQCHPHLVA
Description: Inhibition of HDAC10 (unknown origin)

Histone deacetylase 11 = molecular target: T4, Histone deacetylase 11 (Homo sapiens, UniProt Q96DB2)
T4 sequence (Q96DB2 whole entry): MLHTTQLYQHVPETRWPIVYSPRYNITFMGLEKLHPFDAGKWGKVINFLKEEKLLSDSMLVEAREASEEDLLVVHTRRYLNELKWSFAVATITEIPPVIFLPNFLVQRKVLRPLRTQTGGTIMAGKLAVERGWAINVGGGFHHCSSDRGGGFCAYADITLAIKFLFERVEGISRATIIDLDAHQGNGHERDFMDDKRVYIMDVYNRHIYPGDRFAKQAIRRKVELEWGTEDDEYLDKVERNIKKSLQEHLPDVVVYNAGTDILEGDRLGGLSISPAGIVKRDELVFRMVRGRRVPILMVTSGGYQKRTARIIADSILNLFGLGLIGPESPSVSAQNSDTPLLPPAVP
Description: Inhibition of HDAC11 (unknown origin)

[8] = molecular target: T5, Protein deacetylase HDAC6 (Homo sapiens, UniProt Q9UBN7)
T5 sequence (Q9UBN7 whole entry): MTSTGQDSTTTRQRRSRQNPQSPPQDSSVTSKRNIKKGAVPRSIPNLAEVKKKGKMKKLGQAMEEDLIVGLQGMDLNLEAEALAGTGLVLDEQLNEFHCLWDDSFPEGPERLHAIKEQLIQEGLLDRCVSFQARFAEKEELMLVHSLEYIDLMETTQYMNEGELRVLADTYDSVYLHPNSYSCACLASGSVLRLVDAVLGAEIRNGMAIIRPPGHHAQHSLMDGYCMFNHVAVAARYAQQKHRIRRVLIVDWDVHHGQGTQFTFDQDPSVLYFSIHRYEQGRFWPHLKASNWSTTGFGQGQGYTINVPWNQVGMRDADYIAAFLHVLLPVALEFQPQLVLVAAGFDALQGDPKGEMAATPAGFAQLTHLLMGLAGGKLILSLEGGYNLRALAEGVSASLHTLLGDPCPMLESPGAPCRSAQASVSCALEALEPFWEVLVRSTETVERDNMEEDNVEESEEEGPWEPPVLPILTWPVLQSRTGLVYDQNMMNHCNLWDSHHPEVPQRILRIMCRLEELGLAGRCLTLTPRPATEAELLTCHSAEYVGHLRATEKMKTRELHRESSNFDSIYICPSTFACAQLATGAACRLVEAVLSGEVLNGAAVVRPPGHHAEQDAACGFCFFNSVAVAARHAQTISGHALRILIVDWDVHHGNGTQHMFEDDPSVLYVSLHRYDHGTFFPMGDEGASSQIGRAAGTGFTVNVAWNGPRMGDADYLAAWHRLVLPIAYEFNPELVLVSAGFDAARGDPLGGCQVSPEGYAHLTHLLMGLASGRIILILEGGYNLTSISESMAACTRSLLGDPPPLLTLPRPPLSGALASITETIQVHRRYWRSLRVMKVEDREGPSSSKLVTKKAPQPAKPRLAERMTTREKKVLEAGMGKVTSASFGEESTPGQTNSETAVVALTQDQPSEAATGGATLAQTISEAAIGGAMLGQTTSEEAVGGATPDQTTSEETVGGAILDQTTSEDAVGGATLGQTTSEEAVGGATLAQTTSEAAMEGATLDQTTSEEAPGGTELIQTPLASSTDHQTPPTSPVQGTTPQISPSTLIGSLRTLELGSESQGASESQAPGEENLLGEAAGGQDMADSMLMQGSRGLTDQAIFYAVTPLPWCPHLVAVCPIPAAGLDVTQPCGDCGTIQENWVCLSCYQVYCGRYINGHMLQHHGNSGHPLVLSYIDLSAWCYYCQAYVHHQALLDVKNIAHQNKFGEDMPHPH
Description: Inhibition of HDAC6 (unknown origin)

Histone deacetylase 3 = Histone deacetylase 3 (Homo sapiens, UniProt O15379)
Description: Inhibition of HDAC3 (unknown origin)

MCF7 [9] = assay: cells; conditions: Homo sapiens, MCF7, 24 h
Description: Antiproliferative activity against human MCF7 cells incubated for 24 hrs in presence of SAHA by MTT assay

Huh-7 [10] = assay: Antiproliferative activity against human Huh-7 cells incubated for 24 hrs in presence of SAHA by MTT assay; type: functional, cell-based; conditions: Huh-7, 24 h
NCI-H2228 [11] = assay: Antiproliferative activity against human NCI-H2228 cells incubated for 24 hrs in presence of SAHA by MTT assay; type: functional, cell-based; conditions: NCI-H2228, 24 h
MDA-MB-231 [12] = assay: cells; conditions: Homo sapiens, MDA-MB-231, 24 h
Description: Antiproliferative activity against human MDA-MB-231 cells incubated for 24 hrs in presence of SAHA by MTT assay

PC-3 [13] = assay: Antiproliferative activity against human PC-3 cells incubated for 24 hrs in presence of SAHA by MTT assay; type: functional, cell-based; conditions: PC-3, 24 h
HCT-116 [14] = assay: cells; conditions: Homo sapiens, HCT-116, 24 h
Description: Antiproliferative activity against human HCT-116 cells incubated for 24 hrs in presence of SAHA by MTT assay

Histone deacetylase 1, sequence (Q13547 whole entry): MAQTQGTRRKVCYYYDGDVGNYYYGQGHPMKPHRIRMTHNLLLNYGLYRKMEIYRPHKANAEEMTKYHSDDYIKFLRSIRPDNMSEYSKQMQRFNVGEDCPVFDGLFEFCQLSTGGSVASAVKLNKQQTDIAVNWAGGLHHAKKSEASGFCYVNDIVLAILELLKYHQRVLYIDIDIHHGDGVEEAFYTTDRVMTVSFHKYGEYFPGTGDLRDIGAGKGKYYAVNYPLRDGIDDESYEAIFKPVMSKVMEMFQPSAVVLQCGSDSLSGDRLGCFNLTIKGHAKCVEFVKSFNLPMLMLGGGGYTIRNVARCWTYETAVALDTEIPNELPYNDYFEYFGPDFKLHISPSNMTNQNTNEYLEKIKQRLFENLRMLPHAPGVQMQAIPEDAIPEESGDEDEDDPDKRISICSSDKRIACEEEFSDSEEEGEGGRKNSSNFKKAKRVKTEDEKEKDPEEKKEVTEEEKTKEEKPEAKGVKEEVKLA
Histone deacetylase 4, sequence (P56524 whole entry): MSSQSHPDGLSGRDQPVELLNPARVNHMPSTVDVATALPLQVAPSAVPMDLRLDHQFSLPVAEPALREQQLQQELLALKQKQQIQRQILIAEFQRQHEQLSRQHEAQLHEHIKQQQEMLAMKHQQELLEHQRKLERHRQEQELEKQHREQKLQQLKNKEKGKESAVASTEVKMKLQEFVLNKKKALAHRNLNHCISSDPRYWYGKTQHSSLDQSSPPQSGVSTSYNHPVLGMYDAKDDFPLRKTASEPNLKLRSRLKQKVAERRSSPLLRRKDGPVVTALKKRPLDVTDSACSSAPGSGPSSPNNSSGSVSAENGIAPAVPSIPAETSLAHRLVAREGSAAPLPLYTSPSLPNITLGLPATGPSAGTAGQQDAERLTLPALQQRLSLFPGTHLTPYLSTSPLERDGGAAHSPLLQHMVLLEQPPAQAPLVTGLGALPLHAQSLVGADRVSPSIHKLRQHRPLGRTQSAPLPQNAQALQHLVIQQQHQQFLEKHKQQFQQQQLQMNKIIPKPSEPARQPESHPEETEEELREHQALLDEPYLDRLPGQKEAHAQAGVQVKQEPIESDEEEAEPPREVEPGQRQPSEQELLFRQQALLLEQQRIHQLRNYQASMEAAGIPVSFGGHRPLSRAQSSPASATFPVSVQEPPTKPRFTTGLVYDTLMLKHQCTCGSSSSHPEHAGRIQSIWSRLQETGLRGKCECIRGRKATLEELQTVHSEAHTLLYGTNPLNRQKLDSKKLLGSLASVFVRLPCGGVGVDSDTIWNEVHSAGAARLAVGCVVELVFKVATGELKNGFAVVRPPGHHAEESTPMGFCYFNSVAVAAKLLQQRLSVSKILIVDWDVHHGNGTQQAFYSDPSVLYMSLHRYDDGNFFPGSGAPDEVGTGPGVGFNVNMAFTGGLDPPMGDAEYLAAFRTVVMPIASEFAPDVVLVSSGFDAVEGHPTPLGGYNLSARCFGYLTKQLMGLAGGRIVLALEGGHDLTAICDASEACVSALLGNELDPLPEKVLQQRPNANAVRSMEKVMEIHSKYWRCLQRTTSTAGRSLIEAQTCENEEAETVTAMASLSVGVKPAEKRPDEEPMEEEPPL
Histone deacetylase 3, sequence (O15379 whole entry): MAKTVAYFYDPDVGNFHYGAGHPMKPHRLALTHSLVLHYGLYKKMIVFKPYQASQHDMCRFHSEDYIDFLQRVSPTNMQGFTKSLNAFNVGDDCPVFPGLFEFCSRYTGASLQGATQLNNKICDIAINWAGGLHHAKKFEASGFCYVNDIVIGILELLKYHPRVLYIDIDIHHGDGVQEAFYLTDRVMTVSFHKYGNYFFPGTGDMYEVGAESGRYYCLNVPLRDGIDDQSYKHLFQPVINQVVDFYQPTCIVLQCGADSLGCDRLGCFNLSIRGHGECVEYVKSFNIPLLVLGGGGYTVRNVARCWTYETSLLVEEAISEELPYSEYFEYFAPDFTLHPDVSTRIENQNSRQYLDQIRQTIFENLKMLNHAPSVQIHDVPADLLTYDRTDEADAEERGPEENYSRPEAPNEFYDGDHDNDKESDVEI
Histone deacetylase 2, sequence (Q92769 whole entry): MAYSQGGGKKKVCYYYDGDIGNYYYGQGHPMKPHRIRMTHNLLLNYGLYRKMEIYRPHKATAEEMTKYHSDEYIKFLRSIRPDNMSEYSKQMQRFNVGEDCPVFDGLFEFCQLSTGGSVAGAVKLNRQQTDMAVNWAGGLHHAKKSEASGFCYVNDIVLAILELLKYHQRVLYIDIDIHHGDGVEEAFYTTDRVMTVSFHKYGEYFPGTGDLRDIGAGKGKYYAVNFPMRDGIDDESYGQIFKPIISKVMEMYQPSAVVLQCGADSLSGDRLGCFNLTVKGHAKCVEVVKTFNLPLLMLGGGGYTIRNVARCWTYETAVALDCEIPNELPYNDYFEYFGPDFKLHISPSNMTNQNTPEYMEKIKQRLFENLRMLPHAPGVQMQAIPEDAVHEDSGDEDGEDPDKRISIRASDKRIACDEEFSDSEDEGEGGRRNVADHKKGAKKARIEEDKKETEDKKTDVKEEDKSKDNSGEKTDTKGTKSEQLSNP
Histone deacetylase 9, sequence (Q9UKV0 whole entry): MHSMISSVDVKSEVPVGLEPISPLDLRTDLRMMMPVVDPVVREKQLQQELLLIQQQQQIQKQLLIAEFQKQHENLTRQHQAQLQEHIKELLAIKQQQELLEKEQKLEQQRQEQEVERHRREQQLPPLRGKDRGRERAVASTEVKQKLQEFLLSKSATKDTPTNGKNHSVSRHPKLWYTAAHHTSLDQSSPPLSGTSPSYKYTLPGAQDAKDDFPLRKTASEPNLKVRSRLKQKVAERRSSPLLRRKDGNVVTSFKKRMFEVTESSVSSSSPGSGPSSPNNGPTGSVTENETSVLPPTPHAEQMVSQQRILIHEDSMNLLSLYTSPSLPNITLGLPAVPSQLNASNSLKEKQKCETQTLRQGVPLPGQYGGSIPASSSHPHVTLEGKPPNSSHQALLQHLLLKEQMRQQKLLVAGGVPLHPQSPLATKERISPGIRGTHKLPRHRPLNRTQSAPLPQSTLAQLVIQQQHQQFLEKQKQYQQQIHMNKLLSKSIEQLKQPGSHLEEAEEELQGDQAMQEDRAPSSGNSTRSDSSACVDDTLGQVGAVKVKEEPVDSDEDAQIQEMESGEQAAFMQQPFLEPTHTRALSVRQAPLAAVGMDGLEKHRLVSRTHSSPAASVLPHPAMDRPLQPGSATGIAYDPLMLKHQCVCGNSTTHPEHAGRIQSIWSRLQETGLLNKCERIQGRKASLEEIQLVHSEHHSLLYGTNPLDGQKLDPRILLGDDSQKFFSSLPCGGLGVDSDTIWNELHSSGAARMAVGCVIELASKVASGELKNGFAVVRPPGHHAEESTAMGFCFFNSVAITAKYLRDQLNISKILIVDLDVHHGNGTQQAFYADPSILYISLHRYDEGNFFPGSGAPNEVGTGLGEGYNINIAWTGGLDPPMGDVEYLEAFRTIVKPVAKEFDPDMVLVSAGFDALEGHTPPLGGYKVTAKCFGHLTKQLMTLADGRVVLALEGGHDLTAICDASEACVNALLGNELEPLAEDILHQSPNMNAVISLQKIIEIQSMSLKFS
Histone deacetylase 5, sequence (Q9UQL6 whole entry): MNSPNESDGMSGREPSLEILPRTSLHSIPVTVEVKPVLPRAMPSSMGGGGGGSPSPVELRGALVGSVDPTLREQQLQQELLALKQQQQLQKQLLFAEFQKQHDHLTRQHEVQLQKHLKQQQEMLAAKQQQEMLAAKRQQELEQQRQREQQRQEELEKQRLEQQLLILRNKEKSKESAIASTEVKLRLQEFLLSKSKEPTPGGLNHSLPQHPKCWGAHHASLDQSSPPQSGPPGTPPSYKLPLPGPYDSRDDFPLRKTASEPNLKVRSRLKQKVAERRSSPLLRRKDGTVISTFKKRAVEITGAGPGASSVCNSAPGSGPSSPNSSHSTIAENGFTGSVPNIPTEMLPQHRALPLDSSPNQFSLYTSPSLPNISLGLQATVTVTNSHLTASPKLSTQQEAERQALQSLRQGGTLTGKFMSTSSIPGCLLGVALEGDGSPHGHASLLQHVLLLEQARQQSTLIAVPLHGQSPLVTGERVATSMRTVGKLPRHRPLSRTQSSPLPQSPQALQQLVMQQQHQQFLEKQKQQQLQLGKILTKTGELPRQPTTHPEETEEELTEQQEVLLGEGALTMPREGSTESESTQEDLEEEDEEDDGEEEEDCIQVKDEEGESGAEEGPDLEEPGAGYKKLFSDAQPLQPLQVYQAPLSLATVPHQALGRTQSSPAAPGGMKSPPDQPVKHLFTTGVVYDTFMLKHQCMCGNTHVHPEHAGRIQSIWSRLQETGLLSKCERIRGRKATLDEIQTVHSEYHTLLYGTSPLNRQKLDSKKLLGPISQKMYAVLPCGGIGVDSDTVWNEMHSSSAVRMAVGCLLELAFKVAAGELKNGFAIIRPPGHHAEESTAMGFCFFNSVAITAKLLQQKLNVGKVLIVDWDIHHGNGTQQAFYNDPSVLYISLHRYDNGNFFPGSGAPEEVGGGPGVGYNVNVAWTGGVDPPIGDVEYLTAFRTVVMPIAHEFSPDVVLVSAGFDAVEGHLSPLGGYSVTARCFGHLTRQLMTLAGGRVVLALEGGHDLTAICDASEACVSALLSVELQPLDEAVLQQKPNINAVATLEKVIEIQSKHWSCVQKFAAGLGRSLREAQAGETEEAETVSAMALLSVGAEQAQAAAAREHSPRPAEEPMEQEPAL

Structure (SMILES)	IC50 (MCF7 [1]) [nM]	IC50 (Histone deacetylase 1) [nM]	IC50 (HCT-116 [2]) [nM]	IC50 (PC-3 [3]) [nM]	IC50 (NCI-H2228 [4]) [nM]	IC50 (MDA-MB-231 [5]) [nM]	IC50 (Huh-7 [6]) [nM]	also measured
O=C(CCCCCCn1c2cc3c(cc2c2ncc4ccccc4c21)OCO3)NO	–	–	–	–	–	–	–	IC50 (Histone deacetylase 8): > 1000 nM; IC50 (Histone deacetylase 7): > 5000 nM; IC50 (Histone deacetylase 2): 3 nM; IC50 (Histone deacetylase 9): > 5000 nM; IC50 (Histone deacetylase 4): > 5000 nM; IC50 (Histone deacetylase 5): > 5000 nM; IC50 [7]: 6 nM; IC50 (Histone deacetylase 11): > 5000 nM; IC50 [8]: 4 nM; IC50 (Histone deacetylase 3): 3 nM
CCNNC(=O)CCCCn1c2cc3c(cc2c2[nH]c(=O)c4ccccc4c21)OCO3	4080	1650	3190	3560	2390	> 8000	7410	–
CCCNNC(=O)CCCCCCCn1c2cc3c(cc2c2[nH]c(=O)c4ccccc4c21)OCO3	> 8000	1720	> 8000	> 8000	> 8000	> 8000	> 8000	–
CCCNNC(=O)CCCCCn1c2cc3c(cc2c2[nH]c(=O)c4ccccc4c21)OCO3	> 8000	500	2880	4600	2840	5910	> 8000	–
CCCNNC(=O)CCCCCCn1c2cc3c(cc2c2ncc4ccccc4c21)OCO3	> 8000	130	> 8000	> 8000	> 8000	> 8000	> 8000	–

Further compounds by falling IC50 (MDA-MB-231 [5]), results first:

IC50 (MCF7 [1]) [nM]	IC50 (Histone deacetylase 1) [nM]	IC50 (HCT-116 [2]) [nM]	IC50 (PC-3 [3]) [nM]	IC50 (NCI-H2228 [4]) [nM]	IC50 (MDA-MB-231 [5]) [nM]	IC50 (Huh-7 [6]) [nM]	Structure (SMILES)	also measured
1970	1090	1500	1530	2170	4450	6280	CCCNNC(=O)c1ccc(Cn2c3cc4c(cc3c3[nH]c(=O)c5ccccc5c32)OCO4)cc1	–
4110	3320	3520	3240	2170	4330	6490	CCCCNNC(=O)CCCCn1c2cc3c(cc2c2[nH]c(=O)c4ccccc4c21)OCO3	–
–	–	–	–	–	2870	–	COc1cc([C@@H]2c3cc4c(cc3[C@@H](O[C@@H]3O[C@@H]5CO[C@@H](C)O[C@H]5[C@H](O)[C@H]3O)[C@H]3COC(=O)[C@H]23)OCO4)cc(OC)c1O [ETOPOSIDE]	IC50 (MCF7 [9]): 640 nM; IC50 (Huh-7 [10]): 810 nM; IC50 (NCI-H2228 [11]): 840 nM; IC50 (MDA-MB-231 [12]): 1010 nM; IC50 (PC-3 [13]): 650 nM; IC50 (HCT-116 [14]): 950 nM
1270	640	1310	930	1170	2620	2740	CCCNNC(=O)CCCCn1c2cc3c(cc2c2[nH]c(=O)c4ccccc4c21)OCO3	–
> 8000	< 2	2680	2500	4600	2220	6590	O=C(CCCCCCCn1c2cc3c(cc2c2ncc4ccccc4c21)OCO3)NO	–
